Molecular target: T1, hα4 and β1 integrins (Homo sapiens, UniProt P05556+P13612)
T1 construct: expressed in transfected cells; host or cells: CHO cells
Assay: In vitro inhibition of binding between CHO cells expressing hα4 and β1 integrins and Eu3+-hVCAM-1 D1D7-IgG
Details: for Ki: CHO cells expressing hα4 and β1 integrins, Eu3+-hVCAM-1 D1D7-IgG ligand, without HSA; for IC50: in the presence of 3% human serum albumin (HSA final concentration 3%)
Procedure, shortened: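 Transfected CHO cells, cultured 2 days, were incubated with compound and Eu³⁺-hVCAM-1 D1D7-IgG (diluted to 2 nM) for 1 h at room temperature. Buffer was 25 mM HEPES pH 7.5 with 1 mM Ca²⁺, 1 mM Mg²⁺, 4 mM Mn²⁺ and 0.1% BSA, ±3% HSA final. Cells were washed at 4 °C and read by DELFIA time-resolved fluorescence; Ki was derived from IC50 using the Scatchard Kd.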

T1 sequence (P13612 34-1032): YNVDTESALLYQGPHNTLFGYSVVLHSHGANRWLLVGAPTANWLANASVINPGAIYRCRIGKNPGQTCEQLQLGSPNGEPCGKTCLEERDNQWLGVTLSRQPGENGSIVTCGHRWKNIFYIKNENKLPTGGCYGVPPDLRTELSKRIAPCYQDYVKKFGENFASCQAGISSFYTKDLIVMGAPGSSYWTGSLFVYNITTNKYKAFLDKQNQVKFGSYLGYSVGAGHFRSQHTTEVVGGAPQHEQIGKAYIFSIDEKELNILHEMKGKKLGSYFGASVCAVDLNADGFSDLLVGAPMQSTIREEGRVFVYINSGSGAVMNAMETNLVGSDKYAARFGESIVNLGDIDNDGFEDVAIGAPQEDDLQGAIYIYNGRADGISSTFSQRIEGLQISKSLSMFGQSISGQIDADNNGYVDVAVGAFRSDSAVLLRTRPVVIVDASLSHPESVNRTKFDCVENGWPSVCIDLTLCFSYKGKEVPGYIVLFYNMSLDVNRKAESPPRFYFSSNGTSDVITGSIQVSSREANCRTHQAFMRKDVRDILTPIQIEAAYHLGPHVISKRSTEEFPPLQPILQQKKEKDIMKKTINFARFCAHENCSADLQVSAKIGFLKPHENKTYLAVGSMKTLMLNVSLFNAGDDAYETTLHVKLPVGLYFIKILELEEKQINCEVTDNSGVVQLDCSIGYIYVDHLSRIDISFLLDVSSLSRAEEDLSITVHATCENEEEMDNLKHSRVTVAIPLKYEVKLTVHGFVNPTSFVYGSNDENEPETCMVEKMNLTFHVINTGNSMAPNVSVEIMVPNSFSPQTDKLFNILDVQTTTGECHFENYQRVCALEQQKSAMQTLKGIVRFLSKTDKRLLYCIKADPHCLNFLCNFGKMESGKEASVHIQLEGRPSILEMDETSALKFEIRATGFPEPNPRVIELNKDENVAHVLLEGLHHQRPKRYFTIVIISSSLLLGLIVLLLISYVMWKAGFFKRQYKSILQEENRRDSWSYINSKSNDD
T1 sequence (P05556 21-798): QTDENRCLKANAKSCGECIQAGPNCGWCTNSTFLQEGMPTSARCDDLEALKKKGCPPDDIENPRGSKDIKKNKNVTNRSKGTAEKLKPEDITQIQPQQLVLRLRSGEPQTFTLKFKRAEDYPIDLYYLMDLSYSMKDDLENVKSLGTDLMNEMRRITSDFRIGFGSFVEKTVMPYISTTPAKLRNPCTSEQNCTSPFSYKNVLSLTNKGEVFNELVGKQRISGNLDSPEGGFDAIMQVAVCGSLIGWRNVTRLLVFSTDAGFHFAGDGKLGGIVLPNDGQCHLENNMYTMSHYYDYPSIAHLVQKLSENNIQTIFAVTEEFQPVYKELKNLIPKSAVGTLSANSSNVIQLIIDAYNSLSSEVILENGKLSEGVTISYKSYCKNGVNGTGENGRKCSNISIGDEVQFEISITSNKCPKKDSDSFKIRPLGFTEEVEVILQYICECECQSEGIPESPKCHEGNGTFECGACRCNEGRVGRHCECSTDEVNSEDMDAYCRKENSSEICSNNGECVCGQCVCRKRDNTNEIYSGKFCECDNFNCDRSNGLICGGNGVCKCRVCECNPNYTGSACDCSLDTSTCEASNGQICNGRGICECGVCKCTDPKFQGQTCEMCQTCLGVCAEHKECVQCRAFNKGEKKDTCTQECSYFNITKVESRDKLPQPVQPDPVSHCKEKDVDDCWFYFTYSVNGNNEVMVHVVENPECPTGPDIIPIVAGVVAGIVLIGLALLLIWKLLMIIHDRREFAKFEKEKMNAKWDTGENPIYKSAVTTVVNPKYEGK

| Compound | Ki | IC50 |
| --- | --- | --- |
| O=C(Nc1cc(Cl)c(CC(=O)N2C[C@@H](n3ccnc3)C[C@H]2CO[C@H]2CC[C@H](C(=O)O)CC2)cc1Cl)c1csc2ccccc12 [Example 68, Trans-4-[1-[[4-[(benzo[b]thiophen-3-ylcarbonyl)amino]-2,5-dichlorophenyl]acetyl]-(4S)-(imidazol-1-yl)-(2S)-pyrrolidinylmethoxy]cyclohexanecarboxylic acid] | 2.1 nM | 30 nM |
| C[C@@H]1CN([C@H]2C[C@@H](CO[C@H]3CC[C@H](C(=O)O)CC3)N(C(=O)Cc3cc(Cl)c(NC(=O)c4csc5ccccc45)cc3F)C2)C[C@H](C)O1 [Example 79, Trans-4-[1-[[4-[(benzo[b]thiophen-3-ylcarbonyl)amino]-5-chloro-2-fluorophenyl]acetyl]-(4S)-(cis-2,6-dimethylmorpholin-4-yl)-(2S)-pyrrolidinylmethoxy]cyclohexanecarboxylic acid] | 0.74 nM | 4.1 nM |
| O=C(Nc1cc(F)c(CC(=O)N2C[C@@H](N3CCC(F)(F)C3)C[C@H]2CO[C@H]2CC[C@H](C(=O)O)CC2)cc1Cl)c1csc2ccccc12 [Example 38, Trans-4-[1-[[4-[(benzo[b]thiophen-3-ylcarbonyl)amino]-5-chloro-2-fluorophenyl]acetyl]-(4S)-(3,3-difluoropyrrolidin-1-yl)-(2S)-pyrrolidinylmethoxy]cyclohexanecarboxylic acid] | 1.7 nM | 24 nM |
| CC(C)(C)N1CCN([C@H]2C[C@@H](CO[C@H]3CC[C@H](C(=O)O)CC3)N(C(=O)Cc3cc(Cl)c(NC(=O)c4coc5ccccc45)cc3Cl)C2)CC1 [Example 114, Trans-4-[1-[[4-[(benzo[b]furan-3-ylcarbonyl)amino]-2,5-dichlorophenyl]acetyl]-(4S)-[4-(tert-butyl)piperazin-1-yl]-(2S)-pyrrolidinylmethoxy]cyclohexanecarboxylic acid] | 3 nM | 8.9 nM |
| C[C@@H]1CC[C@@H](C)N1[C@H]1C[C@@H](CO[C@H]2CC[C@H](C(=O)O)CC2)N(C(=O)Cc2cc(Cl)c(NC(=O)c3coc4ccccc34)cc2F)C1 [Example 47, Trans-4-[1-[[4-[(benzo[b]furan-3-ylcarbonyl)amino]-5-chloro-2-fluorophenyl]acetyl]-(4S)-[(2R,5R)-dimethylpyrrolidin-1-yl]-(2S)-pyrrolidinylmethoxy]cyclohexanecarboxylic acid] | 18 nM | 52 nM |
| O=C(Nc1cc(F)c(CC(=O)N2C[C@@H](N3CC(CF)C3)C[C@H]2CO[C@H]2CC[C@H](C(=O)O)CC2)cc1Cl)c1coc2ccccc12 [Example 13, Trans-4-[1-[[4-[(benzo[b]furan-3-ylcarbonyl)amino]-5-chloro-2-fluorophenyl]acetyl]-(4S)-[3-(fluoromethyl)azetidin-1-yl]-(2S)-pyrrolidinylmethoxy]cyclohexanecarboxylic acid] | 7.7 nM | 64 nM |
| O=C(Nc1cc(Cl)c(CC(=O)N2C[C@@H](N3CCN(C4CC4)CC3)C[C@H]2CO[C@H]2CC[C@H](C(=O)O)CC2)cc1Cl)c1csc2ccccc12 [Example 138, Trans-4-[1-[[4-[(benzo[b]thiophen-3-ylcarbonyl)amino]-2,5-dichlorophenyl]acetyl]-(4S)-(4-cyclopropylpiperazin-1-yl)-(2S)-pyrrolidinylmethoxy]cyclohexanecarboxylic acid] | 0.91 nM | 7.7 nM |
| COc1cc(CC(=O)N2C[C@@H](N3CCN(CC(F)(F)F)CC3)C[C@H]2CO[C@H]2CC[C@H](C(=O)O)CC2)ccc1NC(=O)c1cn(C)c2ccccc12 [Example 135, Trans-4-[1-[[3-methoxy-4-[(1-methyl-1H-indol-3-ylcarbonyl)amino]phenyl]acetyl]-(4S)-[4-(2,2,2-trifluoroethyl)piperazin-1-yl]-(2S)-pyrrolidinylmethoxy]cyclohexanecarboxylic acid] | 1.7 nM | 4.4 nM |
| O=C(Nc1ccc(CC(=O)N2C[C@@H](N3CCN(CC(F)(F)F)CC3)C[C@H]2CO[C@H]2CC[C@H](C(=O)O)CC2)cc1Cl)c1coc2ccccc12 [Example 132, Trans-4-[1-[[4-[(benzo[b]furan-3-ylcarbonyl)amino]-3-chlorophenyl]acetyl]-(4S)-[4-(2,2,2-trifluoroethyl)piperazin-1-yl]-(2S)-pyrrolidinylmethoxy]cyclohexanecarboxylic acid] | 1.7 nM | 4 nM |
| O=C(Nc1cc(F)c(CC(=O)N2C[C@@H](N3CCC3)C[C@H]2CO[C@H]2CC[C@H](C(=O)O)CC2)cc1Cl)c1csc2ccccc12 [Example 9, Trans-4-[(4S)-(azetidin-1-yl)-1-[[4-[(benzo[b]thiophen-3-ylcarbonyl)amino]-5-chloro-2-fluorophenyl]acetyl]-(2S)-pyrrolidinylmethoxy]cyclohexanecarboxylic acid] | 1.4 nM | 8.2 nM |
| COC[C@@H]1C[C@H](F)CN1[C@H]1C[C@@H](CO[C@H]2CC[C@H](C(=O)O)CC2)N(C(=O)Cc2cc(Cl)c(NC(=O)c3cn(C)c4ccccc34)cc2Cl)C1 [Example 45, Trans-4-[1-[[2,5-dichloro-4-[(1-methyl-1H-indol-3-ylcarbonyl)amino]phenyl]acetyl]-(4S)-[(4S)-fluoro-(2S)-methoxymethylpyrrolidin-1-yl]-(2S)-pyrrolidinylmethoxy]cyclohexane carboxylic acid] | 14 nM | 15 nM |
| CN1CCN([C@H]2C[C@@H](CO[C@H]3CC[C@H](C(=O)O)CC3)N(C(=O)Cc3cc(Cl)c(NC(=O)c4csc5ccccc45)cc3F)C2)CC1 [Example 111, Trans-4-[1-[[4-[(benzo[b]thiophen-3-ylcarbonyl)amino]-5-chloro-2-fluorophenyl]acetyl]-(4S)-(4-methylpiperazin-1-yl)-(2S)-pyrrolidinylmethoxy]cyclohexanecarboxylic acid] | 0.29 nM | 1.2 nM |
| CC1CCN([C@H]2C[C@@H](CO[C@H]3CC[C@H](C(=O)O)CC3)N(C(=O)Cc3cc(Cl)c(NC(=O)c4csc5ccccc45)cc3F)C2)CC1 [Example 98, Trans-4-[1-[[4-[(benzo[b]thiophen-3-ylcarbonyl)amino]-5-chloro-2-fluorophenyl]acetyl]-(4S)-(4-methylpiperidin-1-yl)-(2S)-pyrrolidinylmethoxy]cyclohexanecarboxylic acid] | 0.89 nM | 3 nM |
| C[C@@H]1CN([C@H]2C[C@@H](CO[C@H]3CC[C@H](C(=O)O)CC3)N(C(=O)Cc3ccc(NC(=O)c4csc5ccccc45)c(Cl)c3)C2)C[C@H](C)O1 [Example 92, Trans-4-[1-[[4-[(benzo[b]thiophen-3-ylcarbonyl)amino]-3-chlorophenyl]acetyl]-(4S)-(cis-2,6-dimethylmorpholin-4-yl)-(2S)-pyrrolidinylmethoxy]cyclohexanecarboxylic acid] | 1.2 nM | 10 nM |
| O=C(Nc1cc(F)c(CC(=O)N2C[C@@H](N3CCN(Cc4ccccc4)CC3)C[C@H]2CO[C@H]2CC[C@H](C(=O)O)CC2)cc1Cl)c1csc2ccccc12 [Example 116, Trans-4-[(4S)-(4-benzylpiperazin-1-yl)-1-[[4-[(benzo[b]thiophen-3-ylcarbonyl)amino]-5-chloro-2-fluorophenyl]acetyl]-(2S)-pyrrolidinylmethoxy]cyclohexanecarboxylic acid] | 0.6 nM | 21 nM |
| O=C(Nc1cc(F)c(CC(=O)N2C[C@@H](N3CCC(F)CC3)C[C@H]2CO[C@H]2CC[C@H](C(=O)O)CC2)cc1Cl)c1csc2ccccc12 [Example 100, Trans-4-[1-[[4-[(benzo[b]thiophen-3-ylcarbonyl)amino]-5-chloro-2-fluorophenyl]acetyl]-(4S)-(4-fluoropiperidin-1-yl)-(2S)-pyrrolidinylmethoxy]cyclohexanecarboxylic acid] | 0.91 nM | 3.9 nM |
| O=C(Nc1cc(Cl)c(CC(=O)N2C[C@@H](N3CCCOCC3)C[C@H]2CO[C@H]2CC[C@H](C(=O)O)CC2)cc1Cl)c1coc2ccccc12 [Example 167, Trans-4-[1-[[4-[(benzo[b]furan-3-ylcarbonyl)amino]-2,5-dichlorophenyl]acetyl]-(4S)-([1,4]-oxazepan-4-yl)-(2S)-pyrrolidinylmethoxy]cyclohexanecarboxylic acid] | 4.4 nM | 19 nM |
| Cn1nc(C(=O)Nc2ccc(CC(=O)N3C[C@@H](N4CCN(CC(F)(F)F)CC4)C[C@H]3CO[C@H]3CC[C@H](C(=O)O)CC3)cc2Cl)c2ccccc21 [Example 128, Trans-4-[1-[[3-chloro-4-[(1-methyl-1H-indazol-3-ylcarbonyl)amino]phenyl]acetyl]-(4S)-[4-(2,2,2-trifluoroethyl)piperazin-1-yl]-(2S)-pyrrolidinylmethoxy]cyclohexanecarboxylic acid] | 3.9 nM | 13 nM |
| CO[C@H]1CN([C@H]2C[C@@H](CO[C@H]3CC[C@H](C(=O)O)CC3)N(C(=O)Cc3ccc(NC(=O)c4nn(C)c5ccccc45)c(Cl)c3)C2)C[C@H]1OC [Example 62, Trans-4-[1-[[4-[(1-methyl-1H-indazol-3-ylcarbonyl)amino]-3-chlorophenyl]acetyl]-(4S)-(cis-3,4-dimethoxypyrrolidin-1-yl)-(2S)-pyrrolidinylmethoxy]cyclohexanecarboxylic acid] | 3.2 nM | 10 nM |
| CC(=O)N1CCN([C@H]2C[C@@H](CO[C@H]3CC[C@H](C(=O)O)CC3)N(C(=O)Cc3cc(Cl)c(NC(=O)c4csc5ccccc45)cc3F)C2)CC1 [Example 148, Trans-4-[1-[[4-[(benzo[b]thiophen-3-ylcarbonyl)amino]-5-chloro-2-fluorophenyl]acetyl]-(4S)-(4-acetylpiperazin-1-yl)-(2S)-pyrrolidinylmethoxy]cyclohexanecarboxylic acid] | 0.53 nM | 2.8 nM |

Source: US8129366B2, “VLA-4 inhibitory drug” (Daiichi Sankyo Company, Limited, priority 2005, dated 2012)
